Experimental data taken from the NIST ThermoML archive (doi:10.1021/acs.jced.7b00106).
Values joined by “and” are separate entries in the source; they are usually repeats but may differ in a detail not shown here. Equal entries are not always repeated.

Conditions: Fluid (supercritical or subcritical phases), Hot wire method

FC(F)(F)/C=C/Cl [(E)-1-chloro-3,3,3-trifluoroprop-1-ene]
Conditions	thermal conductivity
451.94 K, 2166 kPa	0.02385 W/m/K
451.94 K, 5208 kPa	0.04623 W/m/K
451.95 K, 2165 kPa	0.02394 W/m/K
451.98 K, 987 kPa	0.02333 W/m/K
451.98 K, 990 kPa	0.0233 W/m/K
451.98 K, 3273 kPa	0.02726 W/m/K
451.99 K, 3272 kPa	0.02725 W/m/K
452.01 K, 1670 kPa	0.02346 W/m/K
452.01 K, 1671 kPa	0.0235 W/m/K
452.01 K, 2616 kPa	0.02474 W/m/K
452.01 K, 2617 kPa	0.02483 W/m/K
452.03 K, 5206 kPa	0.0467 W/m/K
452.03 K, 5207 kPa	0.04676 W/m/K
452.06 K, 2990 kPa	0.026 W/m/K
452.06 K, 2991 kPa	0.02595 W/m/K
452.09 K, 2165 kPa	0.02407 W/m/K and 0.024 W/m/K
452.12 K, 5207 kPa	0.0469 W/m/K
452.13 K, 5206 kPa	0.04663 W/m/K
452.14 K, 7293 kPa	0.04964 W/m/K
452.14 K, 7296 kPa	0.04969 W/m/K
452.15 K, 987 kPa	0.02338 W/m/K
452.16 K, 988 kPa	0.02337 W/m/K
452.16 K, 2617 kPa	0.02488 W/m/K
452.17 K, 1671 kPa	0.02356 W/m/K
452.17 K, 2617 kPa	0.02487 W/m/K
452.19 K, 5579 kPa	0.04728 W/m/K
452.2 K, 2991 kPa	0.02606 W/m/K
452.2 K, 5578 kPa	0.0472 W/m/K
452.21 K, 2990 kPa	0.026 W/m/K
452.23 K, 5207 kPa	0.04713 W/m/K
452.24 K, 5208 kPa	0.0472 W/m/K
452.25 K, 2165 kPa	0.024 W/m/K
452.29 K, 5577 kPa	0.04741 W/m/K
452.3 K, 5578 kPa	0.04745 W/m/K
452.31 K, 7293 kPa	0.04973 W/m/K
452.32 K, 7296 kPa	0.0498 W/m/K
452.33 K, 988 kPa	0.0233 W/m/K
452.33 K, 2615 kPa	0.02494 W/m/K
452.33 K, 2618 kPa	0.02493 W/m/K
452.33 K, 6080 kPa	0.04801 W/m/K
452.33 K, 6081 kPa	0.04806 W/m/K
452.34 K, 988 kPa	0.02333 W/m/K
452.34 K, 1671 kPa	0.02345 W/m/K
452.35 K, 1672 kPa	0.02348 W/m/K
452.36 K, 22580 kPa	0.06316 W/m/K
452.41 K, 5578 kPa	0.04763 W/m/K
452.42 K, 2166 kPa	0.02413 W/m/K
452.42 K, 2167 kPa	0.02408 W/m/K
452.42 K, 5577 kPa	0.04756 W/m/K
452.43 K, 12588 kPa	0.05554 W/m/K
452.43 K, 12589 kPa	0.05558 W/m/K
452.46 K, 18530 kPa	0.06032 W/m/K
452.46 K, 18535 kPa	0.06035 W/m/K
452.48 K, 7729 kPa	0.0503 W/m/K
452.48 K, 7733 kPa	0.05033 W/m/K
452.49 K, 10507 kPa	0.05349 W/m/K
452.5 K, 7296 kPa	0.04992 W/m/K
452.5 K, 7299 kPa	0.04984 W/m/K
452.51 K, 6079 kPa	0.04861 W/m/K
452.51 K, 6081 kPa	0.04828 W/m/K
452.51 K, 15249 kPa	0.05785 W/m/K
452.52 K, 10513 kPa	0.05353 W/m/K
452.52 K, 15256 kPa	0.05787 W/m/K
452.52 K, 22575 kPa	0.06312 W/m/K
452.52 K, 22580 kPa	0.06313 W/m/K
452.53 K, 989 kPa	0.02342 W/m/K
452.53 K, 5576 kPa	0.04776 W/m/K
452.53 K, 5577 kPa	0.0478 W/m/K
452.53 K, 6779 kPa	0.0491 W/m/K
452.53 K, 6780 kPa	0.0491 W/m/K
452.54 K, 985 kPa	0.02339 W/m/K
452.54 K, 1671 kPa	0.02355 W/m/K
452.54 K, 1672 kPa	0.02352 W/m/K
452.58 K, 8954 kPa	0.0518 W/m/K
452.58 K, 8958 kPa	0.05186 W/m/K
452.61 K, 12577 kPa	0.05553 W/m/K
452.61 K, 12585 kPa	0.05555 W/m/K
452.61 K, 18524 kPa	0.06031 W/m/K
452.63 K, 18535 kPa	0.06055 W/m/K
452.65 K, 5576 kPa	0.04794 W/m/K
452.65 K, 5578 kPa	0.04801 W/m/K
452.67 K, 7732 kPa	0.0504 W/m/K
452.67 K, 7733 kPa	0.05035 W/m/K
452.68 K, 10507 kPa	0.05353 W/m/K
452.68 K, 10512 kPa	0.05353 W/m/K
452.69 K, 6081 kPa	0.04841 W/m/K
452.69 K, 7300 kPa	0.05001 W/m/K
452.69 K, 7301 kPa	0.04996 W/m/K
452.69 K, 15244 kPa	0.05785 W/m/K
452.69 K, 22569 kPa	0.06311 W/m/K
452.69 K, 22574 kPa	0.06307 W/m/K
452.7 K, 6080 kPa	0.04844 W/m/K
452.71 K, 6780 kPa	0.04921 W/m/K
452.72 K, 6782 kPa	0.04926 W/m/K
452.75 K, 990 kPa	0.02344 W/m/K
452.76 K, 988 kPa	0.02344 W/m/K
452.77 K, 8956 kPa	0.05187 W/m/K and 0.05189 W/m/K
452.79 K, 18524 kPa	0.0603 W/m/K
452.79 K, 18533 kPa	0.06034 W/m/K
452.8 K, 12582 kPa	0.05559 W/m/K
452.86 K, 7730 kPa	0.05046 W/m/K
452.86 K, 7733 kPa	0.05047 W/m/K
452.87 K, 10511 kPa	0.05358 W/m/K
452.87 K, 22562 kPa	0.06294 W/m/K
452.88 K, 10507 kPa	0.05361 W/m/K
452.88 K, 15241 kPa	0.05786 W/m/K
452.88 K, 15242 kPa	0.05782 W/m/K
452.88 K, 22559 kPa	0.06307 W/m/K
452.89 K, 6080 kPa	0.04865 W/m/K
452.89 K, 6081 kPa	0.04866 W/m/K
452.9 K, 7299 kPa	0.0501 W/m/K
452.9 K, 7305 kPa	0.05013 W/m/K
452.91 K, 6780 kPa	0.04939 W/m/K
452.91 K, 6781 kPa	0.04936 W/m/K
452.96 K, 8959 kPa	0.05193 W/m/K
452.97 K, 8955 kPa	0.0519 W/m/K
452.98 K, 18519 kPa	0.06033 W/m/K
452.99 K, 12573 kPa	0.05553 W/m/K
452.99 K, 12587 kPa	0.05557 W/m/K
453.06 K, 7731 kPa	0.05059 W/m/K
453.06 K, 22554 kPa	0.06303 W/m/K
453.06 K, 22568 kPa	0.06306 W/m/K
453.07 K, 7733 kPa	0.05056 W/m/K
453.07 K, 10506 kPa	0.05359 W/m/K
453.07 K, 15242 kPa	0.05784 W/m/K
453.08 K, 10511 kPa	0.05377 W/m/K
453.08 K, 15250 kPa	0.05787 W/m/K
453.1 K, 6079 kPa	0.04859 W/m/K
453.12 K, 6779 kPa	0.0495 W/m/K
453.12 K, 6780 kPa	0.04953 W/m/K
453.17 K, 18517 kPa	0.06031 W/m/K
453.17 K, 18518 kPa	0.06033 W/m/K
453.18 K, 8956 kPa	0.05196 W/m/K
453.18 K, 8959 kPa	0.05204 W/m/K
453.2 K, 12578 kPa	0.05564 W/m/K
453.2 K, 12584 kPa	0.05564 W/m/K
453.27 K, 7731 kPa	0.05062 W/m/K
453.27 K, 10508 kPa	0.05365 W/m/K
453.28 K, 7728 kPa	0.05065 W/m/K
453.28 K, 10506 kPa	0.05366 W/m/K
453.28 K, 15236 kPa	0.05778 W/m/K
453.28 K, 15246 kPa	0.05788 W/m/K
453.33 K, 6776 kPa	0.0497 W/m/K
453.33 K, 6780 kPa	0.04971 W/m/K
453.39 K, 8959 kPa	0.05209 W/m/K
